Data: US20260258420A1, “COMPOSITIONS AND METHODS FOR THE TREATMENT OF HUMAN PAPILLOMAVIRUS-DRIVEN CANCERS” (priority 2023, published 2026)

How the values were obtained:
[1] = test system: PDX tumors HOSC144, HOSC19, HOSC156 (p16-positive oropharynx cancer); test: In vivo tumor growth study, HPV-positive PDX models; set-up: species or system nude mice
Experimental: PDX tumors HOSC144 (FIG. 3A, FIG. 3E, FIG. 3F), HOSC19 (FIG. 3B), and HOSC156 (FIG. 3C) were implanted into the flanks of nude mice. After engraftment, mice were randomized and assigned into 1 of 2 treatment groups: vehicle (β-cyclodextrin, n=8) or alisertib (10 mg/kg, n=8). Mice were treated for 3 weeks by daily oral gavage. Tumor size was measured twice a week. FIG. 3A, FIG. 3B, and FIG. 3C show in vivo tumor growth curves for individual mice (left 3 panels). Survival (right panels) was measured using the Kaplan-Meier method. In FIG. 3D, HPV-negative UMSCC22A cells were injected subcutaneously (3×10^6 cells) on the right flanks of the mice. Once the tumor volume reached ≥60 mm^3, mice were randomized into treatment groups. Mice were treated with vehicle or 10 mg/kg alisertib by oral gavage for 5 days per week for 21 days. Tumor size was measured twice a week. […] The Ki67(%) was calculated as the ratio of proliferative cells to total cells in each field, using five random fields. […] The apoptotic (%) was calculated as the ratio of apoptotic cells to total cells in each field, using five random fields in HOSC144 PDX tumors after 8 or 21 days of treatment with either vehicle or alisertib. ** P≤0.01; *** P≤0.001. Bars, 100 μM.
The in vivo tumor growth study was performed in accordance with the Guide for the Care and Use of Laboratory Animals of the National Institutes of Health and approved by MD Anderson's Institutional Animal Care and Use Committee. The PDX models were generated as described previously (Peng, et al., J Transl Med 2013; 11:198), and subjected to qPCR as described to determine the HPV type (Chaturvedi, et al., The Journal of Infectious Diseases 2014; 210(3):441-7; Fakhry, et al, JAMA Oncol 2019; 5(7):985-92). Briefly, tumor tissue was cut into small fragments (5-6 mm) and implanted subcutaneously into the flanks of nude mice. The skin incisions were closed with skin clips that were removed after 10 to 15 days. Once tumors reached an average of 150 to 300 mm^3, the mice were randomized into either vehicle group or alisertib group. Alisertib (Takeda Pharmaceuticals, Lexington, MA; 10 mg/kg in 10% β-cyclodextrin) was administered via oral gavage once daily on a weekly schedule of 6 days on and 1 day off. Tumors were monitored daily, and tumor volume (length×width^2×0.5) was evaluated twice per week with digital calipers. Mice were euthanized when tumors reached 2000 mm^3. The endpoint for the survival studies was the tumor burden. Survival was measured using the Kaplan-Meier method. Survival curve analysis was performed with GraphPad Prism software version 9 (RRID:SCR_002798).
To test the effect of Aurora kinase inhibition in vivo, three patient-derived xenograft (PDX) models that were derived from patients with p16-positive oropharynx cancer [HOSC144 (HPV16, HPV52), HOSC19 (HPV18, HPV59), and HOSC 156 (HPV18)], were implanted in nude mice. A low dose of alisertib (10 mg/kg) was administered continuously for 3 weeks. […] In addition, an HPV-negative cell line with high Rb protein levels was also tested and it was observed that it was resistant to alisertib treatment (FIG. 3D).

[2] = test system: HPV-negative cancer cell lines (UMSCC19, FaDu, and HN31); test: BrdU-TUNEL apoptosis assay, HPV-negative cell lines; assay type: cell-based; conditions: 50 nmol/L barasertib or 200 nmol/L alisertib, 72 hours or 2 doubling times
Experimental: BrdU positive apoptotic cells were detected and quantified. The bar graph indicates the percentage of apoptotic cells with fragmented DNA in HPV-positive and HPV-negative cell lines. Values are the means±the standard deviations for 3 independent experiments. FIG. 2B and FIG. 2C show immunoblots of cleaved PARP (Cl. PARP) and cleaved caspase-3 (Cl. Caspase-3) levels in 3-HPV positive and 3 HPV-negative cell lines after barasertib or alisertib treatment for 2 doubling times (FIG. 2B) or 72 hours (FIG. 2C). […] UM47, UMSCC47; GAPDH, glyceraldehyde 3-phosphate dehydrogenase.
To measure apoptosis, TUNEL staining was performed with an APO-BRDU Kit (BD Biosciences, San Jose, CA) and annexin V/propidium iodide staining with an FITC Annexin V Apoptosis Detection Kit PE (eBioscience, San Diego, CA) as described previously (Kalu, et al., Cancer Lett 2018; 431:64-72). […] Data were acquired with a 3-laser, 10-color Gallios flow cytometer (Beckman Coulter, Brea, CA) and analyzed using Kaluza software, RRID:SCR_016182 (Beckman Coulter, Brea, CA). […] Briefly, after drug treatment, cells were incubated with Senescence Green Probe, a fluorescence-based reagent that contains 2 galactoside moieties that make it specific to […]. The enzyme-cleaved product is retained within the cell, and it emits a fluorogenic signal that was measured at 490/514 nm using a flow cytometer. […]

[3] = HOSC144 tumors, days 8 and 21, vs vehicle

Q: COc1cc(Nc2ncc3c(n2)-c2ccc(Cl)cc2C(c2c(F)cccc2OC)=NC3)ccc1C(=O)O [ALISERTIB, alisertib] was tested. Which “response after treatment was stopped” value ([1]; 10 mg/kg oral gavage, 3 weeks) did it give?
A: sustained response

Q: And the tumor growth ([1]; 10 mg/kg oral gavage, 3 weeks)?
A: clear evidence of tumor regression

Q: And the survival duration ([1]; 10 mg/kg oral gavage, 3 weeks, Kaplan-Meier)?
A: concordant increase in survival duration

Q: And the “Ki67 staining in tumors” value [1, 3]?
A: significantly lower levels of Ki67 staining

Q: What about the “cleaved caspase-3 in tumors” value [1, 3] of the same compound?
A: increased levels of cleaved caspase-3

Q: What about the “apoptosis (TUNEL)” value [2] of the same compound?
A: no appreciable levels of apoptosis
